Measurements from patent US20010039291A1, “Compositions and methods of treatment for cancer or viral infections” (The Procter & Gamble Company, priority 1995, published 2001).
Values after ≈ are worked out from the molar mass of the structure shown.

Columns and labels:
Rhinovirus, type A-1 = test: In vitro screening for Rhinovirus; assay type: cell-based; conditions: cell line WI-38
Description: The positive control was A-36683 of Abbot Company, (S,S)-1,2-bis(5-methoxy-2-benzimidazolyl)-1,2-ethanediol. […] (See Schleicher et al, Applied Microbiology, 23, No. 1, 113-116 (1972).

HT29 colon tumor cells = test: MTT cell viability test, colon tumor cells; assay type: cell-based; conditions: Homo sapiens, HT-29, 120 h, about 5 day incubation, read-out: EC-50 Result
A549 lung tumor cells = test: MTT cell viability test, lung tumor cells; assay type: cell-based; conditions: Homo sapiens, 120 h, about 5 day incubation, read-out: EC-50 Result
MX1 breast cells = test: MTT cell viability test, breast tumor cells; assay type: cell-based; conditions: Homo sapiens, 120 h, about 5 day incubation, read-out: EC-50 Result
[1] = system: Human influenza virus, strain AT2/Taiwan/1/64; test: Anti-viral evaluation with human influenza virus in mice; assay type: in vivo; conditions: oral lavage, observed 21 days after challenge
[2] = system: human tumor colony forming units; test: In vitro human tumor colony forming units test; assay type: cell-based; conditions: for effectiveness against tumor types / tumors with ≦50% survival: continuous exposure
Method: Solid tumors removed by patients are minced into 2 to 5 mm fragments and immediately placed in McCoy's Medium 5A plus 10% heat inactivated newborn calf serum plus 1% penicillin/streptomycin. Within 4 hours, these solid tumors are mechanically disassociated with scissors, forced through No. 100 stainless steel mesh, through 25 gauge needles, and then washed with McCoy's medium as described above. Ascitic, pleural, pericardial fluids and bone marrow are obtained by standard techniques. The fluid or marrow is placed in sterile containers containing 10 units of preservative free heparin per ml. of malignant fluid or marrow. After centrifugation at 150×g for 10 minutes, the cells are harvested and washed with McCoy's medium plus 10% heat inactivated calf serum. The viability of cell suspensions is determined on a hemocytometer with trypan blue.
Cells to be cloned are suspended in 0.3% agar in enriched CMRL1066 supplemented with 15% heat inactivated horse serum, penicillin (100 units/ml), streptomycin (2 mg/ml), glutamine (2 mM), insulin (3 units/ml), asparagine (0.6 mg/ml), and HEPES buffer (2 mM). For the continuous exposure test each compound is added to the above mixture. Cells are placed in 35 mm petri dishes in a top layer of agar over an underlayer of agar to prevent growth of fibroblasts. Three plates are prepared for each data point. The plates are placed in a 37° C. incubator, and are removed on day 14 for counting of the number of colonies in each plate. The number of colonies (defined as 50 cells) formed in the 3 compound treated plates is compared to the number of colonies formed in the 3 control plates, and the percent colonies surviving at the concentration of compound can be estimated. Three positive control plates are used to determine survival rate. Orthosodium vanadate at 200 μg/ml is used as the positive control. If there is <30% colonies in the positive control when compared to the untreated control, the test is evaluated.

COc1ccc2nc([C@H](O)[C@@H](O)c3nc4ccc(OC)cc4[nH]3)[nH]c2c1 [A-36683, (S,S)-1,2-bis(5-methoxy-2-benzimidazolyl)-1,2-ethanediol, reference compound]
therapeutic index (ratio of the toxic dose to the efficacious dose) (Rhinovirus, type A-1): 1000-3200

COc1cccc2c1C(=O)c1c(O)c3c(c(O)c1C2=O)C[C@@](O)(C(=O)CO)C[C@@H]3O[C@H]1C[C@H](N)[C@H](O)[C@H](C)O1 [Adriamycin, reference compound]
EC50 (HT29 colon tumor cells): 0.00639 µg/mL (≈ 0.0118 µM) | EC50 (A549 lung tumor cells): 0.00373 µg/mL (≈ 0.00686 µM) | EC50 (MX1 breast cells): 0.00078 µg/mL (≈ 0.00144 µM)

CCCC1COC(Cn2cncn2)(c2ccc(Cl)cc2Cl)O1 (centres unmarked) [Propiconazole, 1-[2-(2,4-dichlorophenyl)4-propyl-1,3-dioxolan-2-ylmethyl]-1H-1,2,4-triazole]
EC50 (HT29 colon tumor cells): 0.0331 µg/mL (≈ 0.0967 µM) | effective concentration (Rhinovirus, type A-1): 32 µg/mL | therapeutic index (ratio of the toxic dose to the efficacious dose) (Rhinovirus, type A-1): 1-3 | EC50 (A549 lung tumor cells): 0.113 µg/mL (≈ 0.33 µM) | mice survived ([1]; 175 mg/kg dose, saline control no mice survived): 40% | mice survived ([1]; 350 mg/kg dose): 57% | effectiveness against tumors ([2]; 0.5 μg/ml, continuous exposure test): not effective | tumors responding (effective/tested) ([2]; 0.5 μg/ml, single dose experiment): 0/1 | effectiveness against tumor types ([2]; 5.0 μg/ml): effective against breast, head and neck, melanoma and ovarian cancers | tumors with ≦50% survival ([2]; 5.0 μg/ml): 5 of 26 | effectiveness against tumor types ([2]; 50.0 μg/ml): effective against breast, colon, head and neck, lung (non-small cell), melanoma, ovarian, stomach, and uterine cancers | tumors with ≦50% survival ([2]; 50.0 μg/ml): 18 of 25 | EC50 (MX1 breast cells): 0.0284 µg/mL (≈ 0.083 µM)
